Measured values taken from publication PMC6715681, “A high-throughput screen to identify novel synthetic lethal compounds for the treatment of E-cadherin-deficient cells” (Scientific Reports, 2019).
pEC50: −log10 of the molar value. Marks after values point to notes of the source that are not given here.

Experiments:
Assay type in all cases: cell-based, human
MCF10A CDH1^−/− cells [1] = assay: IncuCyte real-time live cell imaging (cell confluence); conditions: for Greatest SL difference in the slope of the growth trendline, MCF10A CDH1^−/− compared to MCF10A WT: linear growth phase; for Growth rate effect in MCF10A CDH1^−/− cells (in words): all concentrations between 2.5–20 μM, 48 hours
Method: (§1) Real-time viability assays were performed on the two lead compounds SLEC-8 and SLEC-11 using the two isogenic MCF10A cell lines. The IncuCyte and xCELLigence assay systems quantify cell growth over the drugging period in real-time, allowing for the assessment of even subtle growth inhibitory effects following compound treatment. The IncuCyte was used in combination with an end-point assay (nuclei counting) to give both live cell imaging and normalized cell counts for each plate.
(§2) Figure 9 IncuCyte validation data for lead compounds 8 and 11. (A) Timeline for the combined live cell imaging and end-point viability assays. Plates were seeded 4,000 cells/well as described in the Methods. (B,C) One hour following compound addition, plates were transferred to the IncuCyte. Three 4x images per well were taken every two hours for 48 hours. An EC80 dose of doxorubicin was used (Supplementary Table 1). Data shown is a representative experiment of three biological replicates. Error bars are SD. The cell confluence v1.5 was calculated using the IncuCyte software. (B) Live cell imaging for SLEC-8. (C) Live cell imaging for SLEC-11. Graphs were created in Excel.
(§3) To calculate growth rates, a trendline was fitted to the linear growth phase of each cell line. The greatest SL difference in the slope of the trendline for SLEC-8 as at 10 μM treatment with 2.0 fold difference for MCF10A CDH1^−/− cells, compared to MCF10A WT. For SLEC-11 the greatest SL difference was at 20 μM, with a 4.0 fold difference in the slope of the trendline for MCF10A CDH1^−/− cells compared to MCF10A WT (data not shown).
(§4) Cells were seeded into each well of Corning’s black walled, clear bottom 96-well plates with a total volume of 100 μL per well. Edge wells were excluded. Both isogenic cell lines were seeded into the same plate to mitigate plate-to-plate variation. Plates for real-time analysis were transferred to the xCELLigence platform (ACEA Biosciences, USA) or the IncuCyte FLR imaging system (Essen BioScience, USA) as previously described.

MCF10A WT cells = assay: as above; conditions: 2.5–20 μM, 48 hours
Method: as §1, §2, §3, §4

MCF10A CDH1^−/− cells [2] = assay: 11-point dose-response screen, cell titre blue (CTB) viability; conditions: for pEC50: Homo sapiens, MCF-10A
Method: The 11-point dose-response screen evaluated a concentration range from 0.02 µM to 20 µM for both isogenic cell lines in duplicate biological replicates (Fig. 4). One limitation to metabolism-based cellular assays is that a change in read out (fluorescence, luminescence or absorbance) may not necessarily be caused by cell death and could instead result from a cessation of proliferation due to senescence or inhibited mitochondrial respiration. For this reason, a direct measurement of cell counts using cellular imaging of nuclei stained with Hoechst 33342 was also included at the 11-point screening stage. For the CTB 11-point screen all plates had acceptable Z’ values above 0.4, with the second biological replicate having 70% above 0.6 (Fig. 4A). The Z’ values for the high-content imaging (HCI) 11-point screen plates were above 0.4 for MCF10A WT, except one plate from biological replicate two with 0.396 (Fig. 4B). However, for MCF10A CDH1^−/− HCI data, only four plates were above a Z’ of 0.4 and the mean Z’ was 0.32 compared to a mean of 0.51 for MCF10A WT. A further quality metric known as the strictly standardized mean difference (SSMD)[40] is a less conservative approach for QC and a cut-off of >3 is generally used. The mean SSMD value was 7.04 for MCF10A WT and 5.27 for MCF10A CDH1^−/− plates and indicates the MCF10A CDH1^−/− HCI data was acceptable[41]. There was a good correlation between the top hits from the HCI and CTB 11-point screening with an overlap of 31 / 40 for the top 40 compounds selected from the eventual hit selection strategies.
MCF10A WT and MCF10A CDH1^−/− cells were seeded into Corning black walled, clear bottom 384-well plates (assay plates) using a multidrop 384 reagent dispenser (Thermo Fisher Scientific) and a total volume of 50 μL per well.
As we have shown MCF10A CDH1^−/− cells have a prolonged lag to log phase growth of around 24 hours, in order to achieve a similar confluence at 72 hours post seeding MCF10A WT and MCF10A CDH1^−/− cell lines were seeded at 600 cells/well and 800 cells/well, respectively. Following seeding, plates were left for one hour at RT without stacking[46] and then centrifuged at 500 × g (RCF) for one minute. Plates were then transferred to an incubator at 37 °C and 5% CO2. At 24 hours post seeding, the MiniTrak robotic liquid handling system (Perkin Elmer) was used to transfer 352 compounds per 384-well library plate to the first 22 columns of a 384-well assay plate containing cells to achieve a 10 μM final compound concentration for the pilot, primary and single-point confirmation screens. For the 11-point dose-response screen, compounds were added to columns 1–22, but excluding edge rows A and P of the library plate to reduce edge-effects (Supplementary Fig. 2). The controls of DMSO (0.2% v/v), doxorubicin (EC80) and entinostat (EC50) were added into columns 23–24 of each assay plate (Supplementary Table 1). Cell titre blue[47] was made in-house in sterile PBS from 597 μM resazurin, 78 μM methylene blue, 1 mM potassium hexacyanoferrate (III) and 1 mM potassium hexacyanoferrate (II) trihydrate. At 69 hours post seeding, 16.7% v/v CTB was added to plates and they were incubated at 37 °C for 3 hours (Supplementary Fig. 1). At 72 hours post seeding, plates were removed from the incubator and left for 30 minutes at RT to equalise the temperature across all wells of the plates and reduce fluorescence-based edge effects before reading on an EnVision (PerkinElmer) at 550 nm excitation and 590 nm emission to quantify cell viability.
Supplementary Table 1. Killing control and SL control effective concentrations.
Doxorubicin EC80 0.3 µM 0.4 µM
MCF10A WT cells were seeded at 600/well and MCF10A CDH1-/- cells at 800/well in 384-well plates. Drugs
were added at 24 hours post seeding and CTB was used as an end-point assay. Concentrations were normalized

MCF10A CDH1^−/− cells [3] = assay: Medium-throughput validation in 96-well plates, Hoechst-33342 nuclei counts (CellProfiler); conditions: for EC50 ratio (MCF10A WT/MCF10A CDH1^−/−) / pEC50: 96-well validation; for pEC50: Hoechst nuclei counts, at least five concentration points; for Differential at 5 µM (%): 48 h post compound addition
Method: as §4
Seventy-two hours post seeding (or 48 hours post compound addition), plates were assayed for cell viability using a one-step cocktail of PFA (0.25% v/v), saponin (0.075% w/v) and Hoechst 33342 (1 μg/ml final) as described previously. CellProfiler was used to enumerate cell counts as previously described.

[4] = normalized cell counts MCF10A WT – MCF10A CDH1^−/−, 96-well

COc1ccc2nc(C)cc(NCc3ccc(F)cc3)c2c1 [SLEC-11, N-(4-Fluorobenzyl)-6-methoxy-2-methylquinolin-4-amine]
Greatest SL difference in the slope of the growth trendline, MCF10A CDH1^−/− compared to MCF10A WT (MCF10A CDH1^−/− cells [1]; 20 μM treatment): 4.0 fold
Growth rate effect in MCF10A CDH1^−/− cells (in words) (MCF10A CDH1^−/− cells [1]): dose-dependent growth rate reduction
Growth reduction in MCF10A WT cells (in words) (MCF10A WT cells): only observed at the higher concentrations
Differential at 20 μM (MCF10A CDH1^−/− cells [2]; 11-point screen, MCF10A WT – MCF10A CDH1−/− POC at 20 μM): 106.45
pEC50 (MCF10A CDH1^−/− cells [2]; 11-point screen (0.02–20 µM), CTB values, averaged between two biological replicates, Supplementary Table 2, read-out: MCF10A CDH1 -/- EC50): 5.16
EC50 ratio (MCF10A WT/MCF10A CDH1^−/−) (MCF10A CDH1^−/− cells [3]): 1.53
pEC50 (MCF10A CDH1^−/− cells [3]): 5.15
pEC50 (MCF10A CDH1^−/− cells [3]; Homo sapiens, MCF-10A): 5.15
Differential at 5 µM (%) (MCF10A CDH1^−/− cells [3]; [4]): 20.7%
Differential at 5 µM (%) (MCF10A CDH1^−/− cells [3]; normalized cell counts MCF10A WT – MCF10A CDH1^−/−, 96-well, listed as 11): 20.74* %

CC(O)CNCc1ccc(OCc2ccc(Cl)cc2Cl)cc1 (centres unmarked) [SLEC-8]
Greatest SL difference in the slope of the growth trendline, MCF10A CDH1^−/− compared to MCF10A WT (MCF10A CDH1^−/− cells [1]; 10 μM treatment): 2.0 fold
Growth rate effect in MCF10A CDH1^−/− cells (in words) (MCF10A CDH1^−/− cells [1]): dose-dependent growth rate reduction
Growth reduction in MCF10A WT cells (in words) (MCF10A WT cells): only observed at the higher concentrations
pEC50 (MCF10A CDH1^−/− cells [2]; 11-point screen, CTB, read-out: MCF10A CDH1^-/- CTB EC50): 5.12
EC50 ratio (MCF10A WT/MCF10A CDH1^−/−) (MCF10A CDH1^−/− cells [3]): 1.36
pEC50 (MCF10A CDH1^−/− cells [3]): 5.04
pEC50 (MCF10A CDH1^−/− cells [3]; Homo sapiens, MCF-10A): 5.04
SL differential at 2.5 μM (MCF10A CDH1^−/− cells [3]; normalized cell counts MCF10A WT – MCF10A CDH1^−/−, 96-well, 2.5 μM): 22.0%
Differential at 5 µM (%) (MCF10A CDH1^−/− cells [3]; [4]): 22.8%
Differential at 5 µM (%) (MCF10A CDH1^−/− cells [3]; normalized cell counts MCF10A WT – MCF10A CDH1^−/−, 96-well, listed as 8): 22.79* %
